Columns and labels:
[1] = in vivo; conditions: Sprague-Dawley, rat, iv, 1 mg/kg
[2] = organism: Rattus norvegicus; conditions: in vivo, po, 10 mg/kg
[3] = in vivo; conditions: Sprague-Dawley, rat, iv, 1 mg/kg; remark: listed apart in the source
[4] = in vivo; conditions: Sprague-Dawley, rat, iv, 1 mg/kg; remark: listed apart in the source
[5] = in vivo; conditions: Sprague-Dawley, rat, po, 10 mg/kg
[6] = in vivo; conditions: Sprague-Dawley, rat, po, 10 mg/kg; remark: listed apart in the source
[7] = in vivo; conditions: Sprague-Dawley, rat, po, 10 mg/kg; remark: listed apart in the source
[8] = in vivo; conditions: Sprague-Dawley, rat, po, 10 mg/kg; remark: listed apart in the source

clearance [1]: 9.67 mL/min | Vz [2]: 41.1 L | Vd [3]: 10.6 L | half-life [4]: 13.8 h | Tmax [5]: 1.7 h | half-life [6]: 33.6 h | bioavailability [7]: 54% | CL/F [8]: 18.3 mL/min
SMILES: CC(C)N1CCN(C(=O)c2ccc(CN3CCCCC3)cc2)CC1

From ChEMBL document CHEMBL1782038, “Heterocyclic replacement of the central phenyl core of diamine-based histamine H3 receptor antagonists” (Eur J Med Chem, 2009)
